{
  "source": "patent US20090143279A1",
  "about": "(priority 2007, published 2009)",
  "key": {"[1]": {"tested_on": "mitochondrial membrane potential", "format": "cell-based, mouse", "details": "for ΔΨm (composite Z-score): normalized score vs mock-treated (DMSO) wells"}, "reactive oxygen species": {"tested_on": "reactive oxygen species", "format": "cell-based, mouse", "details": "for ROS (composite Z-score): normalized score vs mock-treated (DMSO) wells"}, "OXPHOS gene expression": {"tested_on": "OXPHOS gene expression", "format": "cell-based, mouse", "details": "for GE-HTS (composite Z-score): normalized score vs mock-treated (DMSO) wells"}, "nuOXPHOS transcripts": {"tested_on": "nuOXPHOS transcripts", "format": "cell-based, mouse", "details": "for nucOX (composite Z-score): normalized score vs mock-treated (DMSO) wells"}, "mtOXPHOS transcripts": {"tested_on": "mtOXPHOS transcripts", "format": "cell-based, mouse", "details": "for mitoOX (composite Z-score): normalized score vs mock-treated (DMSO) wells"}, "cytochrome c": {"tested_on": "cytochrome c", "format": "cell-based, mouse", "details": "for cyt c (composite Z-score): normalized score vs mock-treated (DMSO) wells"}, "C2C12 myotubes": {"tested_on": "C2C12 myotubes", "details": "for Viability (composite Z-score): normalized score vs mock-treated (DMSO) wells"}, "[2]": {"tested_on": "cellular dehydrogenase activity", "details": "for MTT (composite Z-score): normalized score vs mock-treated (DMSO) wells"}, "[3]": {"details": "20 μM, composite Z-score vs DMSO"}, "[4]": {"details": "composite Z-score vs DMSO wells, Conc 20 μM"}, "[5]": {"details": "composite Z-score vs DMSO, Conc 20 μM"}, "[6]": {"details": "composite Z-score vs mock-treated (DMSO) wells, Conc 20 μM"}},
  "note": "Read-outs that look alike come from different tables or passages of the source.",
  "data": [
    {"compound": "CS(=O)(=O)CCCCN=C=S", "note": "[erysolin]", "values": [
      {"measurement": "ΔΨm (composite Z-score)", "setting": "[1]; Conc 20 μM", "result": "−0.785"},
      {"measurement": "ROS (composite Z-score)", "setting": "reactive oxygen species; Conc 20 μM", "result": "−2.871"},
      {"measurement": "GE-HTS (composite Z-score)", "setting": "OXPHOS gene expression; Conc 20 μM", "result": "−0.913"},
      {"measurement": "nucOX (composite Z-score)", "setting": "nuOXPHOS transcripts; Conc 20 μM", "result": "−0.850"},
      {"measurement": "mitoOX (composite Z-score)", "setting": "mtOXPHOS transcripts; Conc 20 μM", "result": "−0.862"},
      {"measurement": "cyt c (composite Z-score)", "setting": "cytochrome c; Conc 20 μM", "result": "−1.868"},
      {"measurement": "Viability (composite Z-score)", "setting": "C2C12 myotubes; Conc 20 μM", "result": "−4.103"},
      {"measurement": "MTT (composite Z-score)", "setting": "[2]; Conc 20 μM", "result": "−3.551"}
    ]},
    {"compound": "CCOC(=O)CCC(=O)O[C@H]1[C@H](O[C@@H]2[C@@H](C)[C@H](O[C@H]3C[C@@](C)(OC)[C@@H](O)[C@H](C)O3)[C@@H](C)C(=O)O[C@H](CC)[C@@](C)(O)[C@H](O)[C@@H](C)C(=O)[C@H](C)C[C@@]2(C)O)O[C@H](C)C[C@@H]1N(C)C", "note": "[erythromycin ethylsuccinate]", "values": [
      {"measurement": "ΔΨm", "setting": "[1]; [3]", "result": "−0.488"},
      {"measurement": "ROS", "setting": "reactive oxygen species; [3]", "result": 0.555},
      {"measurement": "GE-HTS", "setting": "OXPHOS gene expression; [3]", "result": "−0.390"},
      {"measurement": "nucOX", "setting": "nuOXPHOS transcripts; [3]", "result": "−0.433"},
      {"measurement": "mitoOX", "setting": "mtOXPHOS transcripts; [3]", "result": "−0.163"},
      {"measurement": "cyt c", "setting": "cytochrome c; [3]", "result": 0.220},
      {"measurement": "Viability", "setting": "C2C12 myotubes; [3]", "result": "−0.945"},
      {"measurement": "MTT", "setting": "[2]; [3]", "result": "−1.100"}
    ]},
    {"compound": "C[C@]12CC[C@@H]3c4ccc(O)cc4CC[C@H]3[C@@H]1CC[C@@H]2OC(=O)CCC1CCCC1", "note": "[estradiol cypionate]", "values": [
      {"measurement": "ΔΨm", "setting": "[1]; [4]", "result": "−0.489"},
      {"measurement": "ROS", "setting": "reactive oxygen species; [4]", "result": "−0.010"},
      {"measurement": "GE-HTS", "setting": "OXPHOS gene expression; [4]", "result": "−0.124"},
      {"measurement": "nucOX", "setting": "nuOXPHOS transcripts; [4]", "result": 0.072},
      {"measurement": "mitoOX", "setting": "mtOXPHOS transcripts; [4]", "result": "−0.418"},
      {"measurement": "cyt c", "setting": "cytochrome c; [4]", "result": 0.408},
      {"measurement": "Viability", "setting": "C2C12 myotubes; [4]", "result": 0.219},
      {"measurement": "MTT", "setting": "[2]; [4]", "result": "−2.428"}
    ]},
    {"compound": "COc1ccc2c(c1)CC[C@@H]1[C@@H]2CC[C@]2(C)[C@@H](O)CC[C@@H]12", "note": "[estradiol methyl ether]", "values": [
      {"measurement": "ΔΨm", "setting": "[1]; [5]", "result": "−0.007"},
      {"measurement": "ROS", "setting": "reactive oxygen species; [5]", "result": 0.411},
      {"measurement": "GE-HTS", "setting": "OXPHOS gene expression; [5]", "result": 0.099},
      {"measurement": "nucOX", "setting": "nuOXPHOS transcripts; [5]", "result": 0.214},
      {"measurement": "mitoOX", "setting": "mtOXPHOS transcripts; [5]", "result": "−0.209"},
      {"measurement": "cyt c", "setting": "cytochrome c; [5]", "result": 1.670},
      {"measurement": "Viability", "setting": "C2C12 myotubes; [5]", "result": 0.510},
      {"measurement": "MTT", "setting": "[2]; [5]", "result": "−0.685"}
    ]},
    {"compound": "C[C@]12CC[C@@H]3c4ccc(O)cc4CC[C@H]3[C@@H]1CC[C@@H]2O", "note": "[estradiol]", "values": [
      {"measurement": "ΔΨm", "setting": "[1]; [5]", "result": "−0.085"},
      {"measurement": "ROS", "setting": "reactive oxygen species; [5]", "result": 0.310},
      {"measurement": "GE-HTS", "setting": "OXPHOS gene expression; [5]", "result": 0.290},
      {"measurement": "nucOX", "setting": "nuOXPHOS transcripts; [5]", "result": 0.410},
      {"measurement": "mitoOX", "setting": "mtOXPHOS transcripts; [5]", "result": "−0.058"},
      {"measurement": "cyt c", "setting": "cytochrome c; [5]", "result": 0.389},
      {"measurement": "Viability", "setting": "C2C12 myotubes; [5]", "result": 0.400},
      {"measurement": "MTT", "setting": "[2]; [5]", "result": "−1.040"}
    ]},
    {"compound": "C[C@]12CCC3c4ccc(OC(=O)c5ccccc5)cc4CCC3C1CCC2=O", "note": "(stereo partly shown) [estrone benzoate]", "values": [
      {"measurement": "ΔΨm", "setting": "[1]; [5]", "result": "−0.277"},
      {"measurement": "ROS", "setting": "reactive oxygen species; [5]", "result": 0.210},
      {"measurement": "GE-HTS", "setting": "OXPHOS gene expression; [5]", "result": 0.061},
      {"measurement": "nucOX", "setting": "nuOXPHOS transcripts; [5]", "result": 0.190},
      {"measurement": "mitoOX", "setting": "mtOXPHOS transcripts; [5]", "result": "−0.179"},
      {"measurement": "cyt c", "setting": "cytochrome c; [5]", "result": 0.406},
      {"measurement": "Viability", "setting": "C2C12 myotubes; [5]", "result": 0.154},
      {"measurement": "MTT", "setting": "[2]; [5]", "result": "−0.807"}
    ]},
    {"compound": "CCC(N)C(O)c1ccc(O)c(O)c1", "note": "(stereo not shown) [ethylnorepinephrine]", "values": [
      {"measurement": "ΔΨm (composite Z-score)", "setting": "[1]; Conc 20 μM", "result": "−2.053"},
      {"measurement": "ROS (composite Z-score)", "setting": "reactive oxygen species; Conc 20 μM", "result": "−0.396"},
      {"measurement": "GE-HTS (composite Z-score)", "setting": "OXPHOS gene expression; Conc 20 μM", "result": "−0.475"},
      {"measurement": "nucOX (composite Z-score)", "setting": "nuOXPHOS transcripts; Conc 20 μM", "result": "−0.195"},
      {"measurement": "mitoOX (composite Z-score)", "setting": "mtOXPHOS transcripts; Conc 20 μM", "result": "−0.921"},
      {"measurement": "cyt c (composite Z-score)", "setting": "cytochrome c; Conc 20 μM", "result": "−0.439"},
      {"measurement": "Viability (composite Z-score)", "setting": "C2C12 myotubes; Conc 20 μM", "result": "−0.508"},
      {"measurement": "MTT (composite Z-score)", "setting": "[2]; Conc 20 μM", "result": "−1.017"}
    ]},
    {"compound": "COc1cc([C@@H]2c3cc4c(cc3[C@@H](O[C@@H]3O[C@@H]5CO[C@@H](C)O[C@H]5[C@H](O)[C@H]3O)[C@H]3COC(=O)[C@H]23)OCO4)cc(OC)c1O", "note": "[etoposide]", "values": [
      {"measurement": "ΔΨm", "setting": "[1]; [5]", "result": 0.050},
      {"measurement": "ROS", "setting": "reactive oxygen species; [5]", "result": "−1.736"},
      {"measurement": "GE-HTS", "setting": "OXPHOS gene expression; [5]", "result": 0.725},
      {"measurement": "nucOX", "setting": "nuOXPHOS transcripts; [5]", "result": 0.355},
      {"measurement": "mitoOX", "setting": "mtOXPHOS transcripts; [5]", "result": 1.373},
      {"measurement": "cyt c", "setting": "cytochrome c; [5]", "result": "−0.491"},
      {"measurement": "Viability", "setting": "C2C12 myotubes; [5]", "result": "−1.541"},
      {"measurement": "MTT", "setting": "[2]; [5]", "result": "−2.352"}
    ]},
    {"compound": "Cc1cc(=O)c2c(O)c(C)c(O)cc2o1", "note": "[eugenitol]", "values": [
      {"measurement": "ΔΨm", "setting": "[1]; [6]", "result": "−0.541"},
      {"measurement": "ROS", "setting": "reactive oxygen species; [6]", "result": 1.256},
      {"measurement": "GE-HTS", "setting": "OXPHOS gene expression; [6]", "result": 0.471},
      {"measurement": "nucOX", "setting": "nuOXPHOS transcripts; [6]", "result": 0.168},
      {"measurement": "mitoOX", "setting": "mtOXPHOS transcripts; [6]", "result": 0.962},
      {"measurement": "cyt c", "setting": "cytochrome c; [6]", "result": "−0.041"},
      {"measurement": "Viability", "setting": "C2C12 myotubes; [6]", "result": "−0.575"},
      {"measurement": "MTT", "setting": "[2]; [6]", "result": "−1.139"}
    ]},
    {"compound": "C=CCc1ccc(O)c(OC)c1", "note": "[eugenol]", "values": [
      {"measurement": "ΔΨm", "setting": "[1]; [3]", "result": "−0.816"},
      {"measurement": "ROS", "setting": "reactive oxygen species; [3]", "result": 1.068},
      {"measurement": "GE-HTS", "setting": "OXPHOS gene expression; [3]", "result": "−0.254"},
      {"measurement": "nucOX", "setting": "nuOXPHOS transcripts; [3]", "result": "−0.166"},
      {"measurement": "mitoOX", "setting": "mtOXPHOS transcripts; [3]", "result": "−0.320"},
      {"measurement": "cyt c", "setting": "cytochrome c; [3]", "result": 0.307},
      {"measurement": "Viability", "setting": "C2C12 myotubes; [3]", "result": "−0.943"},
      {"measurement": "MTT", "setting": "[2]; [3]", "result": "−0.243"}
    ]},
    {"compound": "C=C(C)c1cc2cc(C(C)=O)c(O)cc2o1", "note": "[euparin]", "values": [
      {"measurement": "ΔΨm", "setting": "[1]; [6]", "result": "−0.010"},
      {"measurement": "ROS", "setting": "reactive oxygen species; [6]", "result": 0.795},
      {"measurement": "GE-HTS", "setting": "OXPHOS gene expression; [6]", "result": 1.120},
      {"measurement": "nucOX", "setting": "nuOXPHOS transcripts; [6]", "result": 1.293},
      {"measurement": "mitoOX", "setting": "mtOXPHOS transcripts; [6]", "result": 0.484},
      {"measurement": "cyt c", "setting": "cytochrome c; [6]", "result": 0.419},
      {"measurement": "Viability", "setting": "C2C12 myotubes; [6]", "result": 0.021},
      {"measurement": "MTT", "setting": "[2]; [6]", "result": "−0.912"}
    ]}
  ]
}
